The numbers were not newly measured in patent publication US20160281133A1, “STABILIZATION AND ISOLATION OF EXTRACELLULAR NUCLEIC ACIDS” (QIAGEN GMBH, priority 2013, published 2016), which cites them from elsewhere.

Data set [1] concerns the target T1, caspase-1 (Homo sapiens, UniProt P29466).
T1 sequence (P29466 120-297 limits assumed): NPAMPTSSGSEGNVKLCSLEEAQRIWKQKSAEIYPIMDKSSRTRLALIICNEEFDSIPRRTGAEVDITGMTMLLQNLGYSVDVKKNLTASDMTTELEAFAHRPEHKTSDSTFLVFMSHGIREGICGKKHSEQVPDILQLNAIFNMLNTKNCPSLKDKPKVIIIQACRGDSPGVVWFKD
T1 sequence (P29466 317-404 limits assumed): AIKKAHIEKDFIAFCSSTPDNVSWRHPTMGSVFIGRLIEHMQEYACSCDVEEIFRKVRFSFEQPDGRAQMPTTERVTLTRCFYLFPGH
Conditions: cited from earlier work.

Data set [2] deals with pancreatic duct cells. To be noted: cited from earlier work.
For data set [3], the target named is calpain I (Homo sapiens, UniProt P07384). Conditions: cited from earlier work.
Sequence of calpain I (P07384 whole entry, one chain of several): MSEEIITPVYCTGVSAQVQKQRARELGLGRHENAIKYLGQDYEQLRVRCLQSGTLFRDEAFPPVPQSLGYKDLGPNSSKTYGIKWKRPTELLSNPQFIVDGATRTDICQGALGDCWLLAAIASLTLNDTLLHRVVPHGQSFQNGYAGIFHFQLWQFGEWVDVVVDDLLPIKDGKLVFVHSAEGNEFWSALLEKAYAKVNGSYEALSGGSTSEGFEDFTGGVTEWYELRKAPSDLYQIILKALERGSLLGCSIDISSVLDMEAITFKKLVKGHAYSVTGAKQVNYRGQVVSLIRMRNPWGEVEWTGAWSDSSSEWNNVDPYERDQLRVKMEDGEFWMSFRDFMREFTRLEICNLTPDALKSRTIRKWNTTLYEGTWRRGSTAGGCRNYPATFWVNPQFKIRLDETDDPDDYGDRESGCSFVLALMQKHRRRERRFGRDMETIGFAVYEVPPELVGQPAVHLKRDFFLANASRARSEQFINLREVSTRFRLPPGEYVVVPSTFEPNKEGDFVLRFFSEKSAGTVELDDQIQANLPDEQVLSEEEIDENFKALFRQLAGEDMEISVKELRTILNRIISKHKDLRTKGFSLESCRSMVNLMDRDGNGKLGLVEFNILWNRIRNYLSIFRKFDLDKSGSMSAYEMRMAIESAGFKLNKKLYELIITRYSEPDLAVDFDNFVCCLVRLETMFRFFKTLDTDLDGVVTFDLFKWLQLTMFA
The target in data set [4] is cathepsin L (Homo sapiens, UniProt P07711). To be noted: cited from earlier work.
Sequence of cathepsin L (P07711 114-333, species assumed): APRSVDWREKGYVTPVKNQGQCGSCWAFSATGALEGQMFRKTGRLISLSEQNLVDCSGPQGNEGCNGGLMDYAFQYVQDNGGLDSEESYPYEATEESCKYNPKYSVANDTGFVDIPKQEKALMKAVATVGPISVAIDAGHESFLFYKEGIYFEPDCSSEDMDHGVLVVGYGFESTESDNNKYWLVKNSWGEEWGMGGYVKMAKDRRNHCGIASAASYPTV
For data set [5], the target named is T2, calpain II (Homo sapiens, UniProt P17655).
T2 sequence (P17655 1-700): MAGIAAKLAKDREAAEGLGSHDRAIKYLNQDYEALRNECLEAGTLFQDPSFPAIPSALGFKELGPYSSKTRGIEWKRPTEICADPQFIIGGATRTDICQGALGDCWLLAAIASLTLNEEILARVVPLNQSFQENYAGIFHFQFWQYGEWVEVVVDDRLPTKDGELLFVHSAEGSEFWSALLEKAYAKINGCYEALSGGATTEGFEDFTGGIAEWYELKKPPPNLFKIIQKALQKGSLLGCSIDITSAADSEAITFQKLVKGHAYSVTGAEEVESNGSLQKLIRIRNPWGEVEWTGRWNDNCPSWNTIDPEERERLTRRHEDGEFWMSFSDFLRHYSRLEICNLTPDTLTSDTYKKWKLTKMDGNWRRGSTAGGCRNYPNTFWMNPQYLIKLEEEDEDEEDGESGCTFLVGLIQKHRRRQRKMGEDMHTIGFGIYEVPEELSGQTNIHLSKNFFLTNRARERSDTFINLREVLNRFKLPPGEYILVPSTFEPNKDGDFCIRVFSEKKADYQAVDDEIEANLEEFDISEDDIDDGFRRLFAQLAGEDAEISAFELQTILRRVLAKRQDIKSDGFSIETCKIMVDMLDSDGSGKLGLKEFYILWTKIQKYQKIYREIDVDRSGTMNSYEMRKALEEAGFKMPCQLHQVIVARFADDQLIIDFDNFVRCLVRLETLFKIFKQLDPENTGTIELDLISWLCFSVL
T2 sequence (P04632 1-268 partner): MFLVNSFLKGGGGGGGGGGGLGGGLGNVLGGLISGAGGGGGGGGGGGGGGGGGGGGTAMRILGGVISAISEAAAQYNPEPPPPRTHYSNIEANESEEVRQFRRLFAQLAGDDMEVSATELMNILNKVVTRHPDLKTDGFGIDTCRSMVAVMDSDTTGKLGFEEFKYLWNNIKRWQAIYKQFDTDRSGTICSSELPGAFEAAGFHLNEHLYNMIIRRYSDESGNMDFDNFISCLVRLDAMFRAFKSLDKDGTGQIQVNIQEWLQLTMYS
Conditions: cited from earlier work.

Data set [6] concerns the target T3, caspase-2 (Homo sapiens, UniProt P42575).
T3 sequence (P42575 170-325 limits assumed): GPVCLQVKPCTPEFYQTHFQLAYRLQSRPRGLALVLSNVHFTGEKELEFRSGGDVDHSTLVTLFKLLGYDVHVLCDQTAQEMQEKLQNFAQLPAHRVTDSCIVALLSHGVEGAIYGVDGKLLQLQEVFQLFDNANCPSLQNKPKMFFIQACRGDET
T3 sequence (P42575 348-452 limits assumed): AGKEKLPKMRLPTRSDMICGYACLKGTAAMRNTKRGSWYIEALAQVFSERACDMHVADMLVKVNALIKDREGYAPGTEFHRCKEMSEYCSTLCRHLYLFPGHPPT
Conditions: cited from earlier work.

In data set [7] the target is T4, caspase-7 (Homo sapiens, UniProt P55210).
T4 sequence (P55210 24-198 limits assumed): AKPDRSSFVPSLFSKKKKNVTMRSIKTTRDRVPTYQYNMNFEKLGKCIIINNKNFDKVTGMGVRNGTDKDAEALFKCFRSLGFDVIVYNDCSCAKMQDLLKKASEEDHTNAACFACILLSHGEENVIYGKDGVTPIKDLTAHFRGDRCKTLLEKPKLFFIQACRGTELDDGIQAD
T4 sequence (P55210 207-303 limits assumed): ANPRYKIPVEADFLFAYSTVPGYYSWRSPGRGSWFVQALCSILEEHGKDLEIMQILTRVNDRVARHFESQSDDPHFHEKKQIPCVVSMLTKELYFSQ
To be noted: cited from earlier work.

Data set [8] concerns the target T5, caspase-3 (Homo sapiens, UniProt P42574).
T5 sequence (P42574 29-175 limits assumed): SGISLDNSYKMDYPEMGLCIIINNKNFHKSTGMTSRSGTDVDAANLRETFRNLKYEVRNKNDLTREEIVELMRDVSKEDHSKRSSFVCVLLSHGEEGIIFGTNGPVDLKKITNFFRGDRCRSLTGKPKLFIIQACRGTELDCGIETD
T5 sequence (P42574 176-277 limits assumed): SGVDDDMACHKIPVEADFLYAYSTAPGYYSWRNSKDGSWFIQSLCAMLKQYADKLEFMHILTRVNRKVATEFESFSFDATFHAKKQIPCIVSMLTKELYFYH
Conditions: cited from earlier work.

For data set [9], the system named is MCF7 breast cancer cells. Conditions: at 20 μM; cited from earlier work.
The target in data set [10] is N-SMase (neutral sphingomyelinase). To be noted: rat brain; cited from earlier work.
The subject of data set [11] is myocardial infarct size. To be noted: during reperfusion; cited from earlier work.
For data set [12], the target named is T1, caspase-1. Conditions: cited from earlier work. This is another data set of the same source.
Data set [13] deals with T6, caspase-10 (Homo sapiens, UniProt Q92851).
T6 sequence (Q92851 220-415 limits assumed): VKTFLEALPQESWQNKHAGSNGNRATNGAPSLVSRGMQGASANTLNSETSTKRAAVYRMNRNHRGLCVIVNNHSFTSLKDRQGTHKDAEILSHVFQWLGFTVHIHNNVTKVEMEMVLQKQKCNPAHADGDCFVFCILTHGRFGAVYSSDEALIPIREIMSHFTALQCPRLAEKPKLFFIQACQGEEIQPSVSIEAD
T6 sequence (Q92851 416-521 limits assumed): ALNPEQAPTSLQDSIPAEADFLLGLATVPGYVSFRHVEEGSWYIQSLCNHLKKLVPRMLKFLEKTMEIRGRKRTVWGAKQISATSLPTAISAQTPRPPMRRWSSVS
Conditions: value type not repeated in the cell; cited from earlier work.

The test system of data set [14] is Bax-mediated apoptosis. To be noted: functions as effectively as Caspase Inhibitor VI (Z-VAD-FMK); cited from earlier work.
Data set [15] deals with PI3K. To be noted: cited from earlier work.
The test system of data set [16] is proliferation. To be noted: cited from earlier work.
Data set [17] relates to PKC. To be noted: cited from earlier work.
In data set [18] the test system is TNF-induced inhibition of DNA synthesis. To be noted: cited from earlier work.
In data set [19] the test system is LDH % release. To be noted: cited from earlier work.
Data set [20] has as its system TNF-induced PMN-EC adhesion. To be noted: cited from earlier work.
The conditions of data set [21]: in neuron culture medium at 37° C.; cited from earlier work.
For data set [22], the system named is etoposide-induced cortical neuron death. Conditions: cited from earlier work.
The target of data set [23] is Stat3 (Homo sapiens, UniProt P40763). To be noted: read-out: DB50 (concentration of peptide at which DNA-binding activity is inhibited by 50%); cited from earlier work.
Sequence of Stat3 (P40763 whole entry, species assumed): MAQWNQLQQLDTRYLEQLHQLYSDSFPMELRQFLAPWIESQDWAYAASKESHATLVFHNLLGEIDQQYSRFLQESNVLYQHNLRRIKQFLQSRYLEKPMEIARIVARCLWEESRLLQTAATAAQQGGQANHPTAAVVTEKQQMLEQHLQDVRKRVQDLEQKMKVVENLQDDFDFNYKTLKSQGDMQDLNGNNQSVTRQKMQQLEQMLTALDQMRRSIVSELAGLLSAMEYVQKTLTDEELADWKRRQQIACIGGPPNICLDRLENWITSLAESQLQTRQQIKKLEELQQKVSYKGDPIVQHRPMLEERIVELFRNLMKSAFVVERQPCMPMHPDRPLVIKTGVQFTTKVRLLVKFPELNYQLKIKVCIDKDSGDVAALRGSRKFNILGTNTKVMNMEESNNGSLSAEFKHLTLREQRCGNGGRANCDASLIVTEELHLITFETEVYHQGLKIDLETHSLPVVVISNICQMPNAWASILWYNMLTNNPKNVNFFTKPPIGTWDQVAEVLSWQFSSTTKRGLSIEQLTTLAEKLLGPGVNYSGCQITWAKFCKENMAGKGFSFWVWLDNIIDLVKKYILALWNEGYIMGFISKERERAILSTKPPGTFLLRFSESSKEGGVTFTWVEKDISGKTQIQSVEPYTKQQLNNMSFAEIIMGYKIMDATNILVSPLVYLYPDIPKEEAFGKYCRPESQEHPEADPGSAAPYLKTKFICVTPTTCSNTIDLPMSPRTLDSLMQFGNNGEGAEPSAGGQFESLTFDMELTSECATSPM
For data set [24], the target named is caspase-8 (Homo sapiens, UniProt Q14790). Conditions: cited from earlier work.
Sequence of caspase-8 (Q14790 217-374 limits assumed, species assumed): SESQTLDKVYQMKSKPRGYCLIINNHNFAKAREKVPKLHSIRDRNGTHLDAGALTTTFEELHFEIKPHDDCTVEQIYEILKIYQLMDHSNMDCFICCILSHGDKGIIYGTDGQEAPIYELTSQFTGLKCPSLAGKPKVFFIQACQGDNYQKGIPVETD
Sequence of caspase-8 (Q14790 385-479 limits assumed, species assumed): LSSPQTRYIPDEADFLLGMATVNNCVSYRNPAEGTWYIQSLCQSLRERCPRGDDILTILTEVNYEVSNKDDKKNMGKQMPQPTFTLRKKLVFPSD
Data set [25] addresses anthrax lethal factor (Bacillus anthracis, UniProt P15917). To be noted: cited from earlier work.
Data set [26] deals with T7, Omi/HtrA2 (His-Omi134-458) (Homo sapiens, UniProt O43464).
T7 construct: His-Omi134-458; His (N)
T7 sequence (O43464 134-458): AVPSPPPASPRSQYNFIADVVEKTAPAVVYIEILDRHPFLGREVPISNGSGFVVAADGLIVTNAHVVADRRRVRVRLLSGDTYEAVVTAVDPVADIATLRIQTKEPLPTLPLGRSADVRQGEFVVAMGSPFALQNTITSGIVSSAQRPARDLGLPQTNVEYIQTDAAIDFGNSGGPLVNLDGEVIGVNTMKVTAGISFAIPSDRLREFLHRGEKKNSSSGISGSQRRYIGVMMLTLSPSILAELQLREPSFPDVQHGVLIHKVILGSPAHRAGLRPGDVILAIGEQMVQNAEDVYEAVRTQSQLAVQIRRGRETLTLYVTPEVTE
To be noted: for His-Omi134-458; cited from earlier work.

The subject of data set [27] is various other serine proteases. Conditions: cited from earlier work.
The target in data set [28] is COX-1 (Homo sapiens, UniProt P23219). Conditions: cited from earlier work.
Sequence of COX-1 (P23219 24-599): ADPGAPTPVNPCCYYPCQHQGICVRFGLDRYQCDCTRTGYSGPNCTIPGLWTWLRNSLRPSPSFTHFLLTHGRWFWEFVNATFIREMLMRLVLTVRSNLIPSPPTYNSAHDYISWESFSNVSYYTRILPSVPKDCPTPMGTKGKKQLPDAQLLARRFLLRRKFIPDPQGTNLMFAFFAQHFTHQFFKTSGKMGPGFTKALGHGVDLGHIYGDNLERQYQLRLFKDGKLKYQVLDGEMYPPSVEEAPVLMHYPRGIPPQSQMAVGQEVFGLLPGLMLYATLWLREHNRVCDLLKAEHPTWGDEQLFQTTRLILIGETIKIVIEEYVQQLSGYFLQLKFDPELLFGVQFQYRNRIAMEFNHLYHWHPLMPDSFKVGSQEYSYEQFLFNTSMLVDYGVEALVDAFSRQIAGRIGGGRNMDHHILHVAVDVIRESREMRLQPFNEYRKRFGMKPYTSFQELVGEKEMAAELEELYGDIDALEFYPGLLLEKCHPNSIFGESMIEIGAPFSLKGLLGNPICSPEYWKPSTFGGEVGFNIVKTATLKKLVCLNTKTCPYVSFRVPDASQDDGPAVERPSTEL
The subject of data set [29] is COX-2. To be noted: cited from earlier work.

Where two headings read alike, the source gives them in different places. Where a SMILES comes first, the peptide text is derived from it. [ ]: non-standard residue; d: D form. Nle = CCCC[CH](N)C(=O)O

Sequence of anthrax lethal factor (P15917 34-809 limits assumed): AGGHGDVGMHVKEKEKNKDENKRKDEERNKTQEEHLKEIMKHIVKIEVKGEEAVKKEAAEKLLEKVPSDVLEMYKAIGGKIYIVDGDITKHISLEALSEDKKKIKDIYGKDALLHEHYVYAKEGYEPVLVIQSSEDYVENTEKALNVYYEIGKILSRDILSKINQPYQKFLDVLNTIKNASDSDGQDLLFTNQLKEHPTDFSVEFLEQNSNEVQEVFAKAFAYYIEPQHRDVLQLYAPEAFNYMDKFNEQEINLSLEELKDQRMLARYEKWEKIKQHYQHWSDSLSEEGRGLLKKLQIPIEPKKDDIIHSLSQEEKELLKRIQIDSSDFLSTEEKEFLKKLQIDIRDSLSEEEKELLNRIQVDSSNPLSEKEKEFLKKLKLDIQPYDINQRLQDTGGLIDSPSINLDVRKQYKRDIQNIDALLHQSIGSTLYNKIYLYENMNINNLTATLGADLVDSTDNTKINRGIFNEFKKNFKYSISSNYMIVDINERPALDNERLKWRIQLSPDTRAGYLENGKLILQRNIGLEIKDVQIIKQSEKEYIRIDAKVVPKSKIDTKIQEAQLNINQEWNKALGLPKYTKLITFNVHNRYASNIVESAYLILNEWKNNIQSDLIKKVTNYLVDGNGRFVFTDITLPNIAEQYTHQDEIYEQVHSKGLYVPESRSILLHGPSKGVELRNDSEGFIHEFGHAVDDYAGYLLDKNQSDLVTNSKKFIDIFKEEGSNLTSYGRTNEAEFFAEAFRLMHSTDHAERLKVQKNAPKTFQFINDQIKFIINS

Turning to “Ac-Tyr-Val-Ala-Asp-CHO [Caspase-1 Inhibitor I]”, in data set [1], the Ki is 0.0002 µM.

Regarding `CCN1C(=O)C=CC1=O` [N-Ethylmaleimide], the IC50 in [2] is 22 µM.

Take `CCCCC(C=O)NC(=O)C(CC(C)C)NC(=O)C(CC(C)C)NC(C)=O` (stereo not drawn) [Ac-Leu-Leu-Nle-al] (Ac-Leu-Leu-[Nle]-aldehyde; configuration not given here): the Ki is 0.19 µM in [3], 0.0005 µM in data set [4] and 0.15 µM in data set [5].

In the case of “Ac-Val-Asp-Val-Ala-Asp-CHO (Ac-VDVAD-aldehyde) [Caspase Inhibitor VIII]”, the Ki in [6] was 0.0035 µM; in data set [7] it was 0.0075 µM; in data set [8] it was 0.001 µM.

Take `O=C(C=Cc1ccc(C=CC(=O)Nc2ccc(C3=NCCN3)cc2)cc1)Nc1ccc(C2=NCCN2)cc1` [GW 4869]: in [9], the “protection against TNF-α or diamine-induced cell death” value is on record as “specific PLC. Reported to offer complete protection against TNF-α”. The IC50 in data set [10] was about 1 µM.

“Ac-Leu-Glu-His-Asp-CMK (LEHD; HELM PEPTIDE1{[ac].L.E.H.D.[ClC[*:1]]}$$$$V2.0; SMILES CC(=O)N[C@@H](CC(C)C)C(=O)N[C@@H](CCC(=O)O)C(=O)N[C@@H](Cc1c[nH]cn1)C(=O)N[C@@H](CC(=O)O)C(=O)CCl) [Caspase-9 Inhibitor III]”: in data set [11], the “concentration reported to reduce myocardial infarct size” value is listed as “myocardial infarct size during reperfusion (~70 nM)”.

Consider “Ac-Ile-Glu-Thr-Asp-CHO (Ac-IETD-aldehyde) [Granzyme B Inhibitor II]”, for which the Ki is under 0.006 µM in data set [12] and 0.027 µM in data set [13].

With “H-Val-Pro-Met-Leu-Lys-OH (H-VPMLK-OH) [Bax-Inhibiting Peptide, V5]”, in data set [14], the “concentration effective for Bax-mediated apoptosis” value was “mediated apoptosis (~50-200 μM). Also effectively blocks caspase-”.

Consider `O=c1c(O)c(-c2ccc(O)c(O)c2)oc2cc(O)cc(O)c12` [Quercetin(Sophoretin), Quercetin], for which the IC50 in data set [15] was 3.8 µM; in data set [16], 11.4 µM; in data set [17], 15 μg/ml. It strongly abrogated PI3K and Src kinases, mildly; in [18], 6.1 µM; in data set [19], 0.8 µM; in [20], 16.7 µM.

As to `O=[N+]([O-])c1ccc(-c2cn3c4c(sc3n2)CCCC4)cc1` [Pifithrin-α, p-Nitro, Cyclic], in [21], the “longer half-life than Pifithrin-α” value is reported as 50% and the t½ is reported as 6 h. Moreover, the “higher potency than Pifithrin-α” value in [22] is on record as “A cell-permeable p53 inhibitor that exhibits 10-fold higher potency”.

Turning to “Ac-Pro-Tyr(PO3H2)-Leu-Lys-Thr-Lys-OH (PYLKTK; HELM PEPTIDE1{[ac].P.[O=C([C@H](Cc1ccc(OP(=O)(O)O)cc1)N[*:1])[*:2]].L.K.T.K}$$$$V2.0; SMILES CC(=O)N1CCC[C@H]1C(=O)N[C@@H](Cc1ccc(OP(=O)(O)O)cc1)C(=O)N[C@@H](CC(C)C)C(=O)N[C@@H](CCCCN)C(=O)N[C@H](C(=O)N[C@@H](CCCCN)C(=O)O)[C@@H](C)O) [STAT3 Inhibitor Peptide]”, the IC50 in [23] is 235 µM.

`FC(F)(F)c1cccc(-c2csc(C3COc4ccccc4O3)n2)c1` (stereo not drawn) [Caspase Inhibitor X]: the Ki in [24] was 2.7 µM. The “effect on activity of anthrax lethal factor” value in data set [25] is recorded as “assisted cleavage of BID, a proapoptotic protein. Weakly affects”.

For `O=C1C(=Cc2ccc(-c3ccccc3[N+](=O)[O-])o2)C(=O)N(c2ccccc2)C(=S)N1c1ccccc1` [Omi/HtrA2 Protease Inhibitor, Ucf-101], the IC50 in data set [26] is 9.5 µM; in data set [27], at least 200 µM.

Consider `O=c1c(O)c(-c2ccc(O)cc2)oc2cc(O)cc(O)c12` [Kaempferol], for which the IC50 in data set [28] was 180 µM; in [29], under 15 µM.

The term Ki denotes the dissociation constant of the complex between target and ligand, obtained from inhibition or displacement. As usually defined, the t½ is how long it takes for the measured level to halve.
